Experimental data published in US9114126B2, “Na/K-ATPase ligands, ouabain antagonists, assays and uses thereof” (The University of Toledo, priority 2009, dated 2015).
Entries after “also recorded” stand apart in the source; their conditions may differ. One block for each compound: values may come before it.

Tests used:
[1] = target: T1, purified Na/K-ATPase (Sus scrofa (Pig), UniProt P05024); assay: Na/K-ATPase activity, 96-well high throughput screen assay (released phosphate, BIOMOL GREEN); format: biochemical; details: for effect of changes in K+ concentration on compound-induced inhibition of Na/K-ATPase: data not shown
Experimental: The purified Na/K-ATPase was prepared from pig kidney. The specific activities of Na/K-ATPase of various kidney preparations were in the range of 900-1,200 μmol/mg/h, which were greater than 95% of the total ATPase activity. The high throughput screen is conducted in a 96-well format with the final reaction volume of 100 μl containing the following components: 100 mM NaCl, 20 mM KCl, 1 mM MgCl2, 1 mM EGTA, 20 mM Tris-HCl (pH 7.4) and 0.2 μg of purified Na/K-ATPase. After compounds were added, mixtures were incubated for 15 min at 37° C. for 15 min and reaction was initiated by adding 2 mM ATP.Mg mixture.
Reactions were carried out for 15 min and then stopped by the addition of 100 μl ice-cold trichloroacetic acid. Reaction mixtures were cleared by centrifugation, and assayed for released phosphate using the BIOMOL GREEN™ Reagent according to the manufacturer's instructions. In addition, the control Na/K-ATPase activity was measured in the presence and absence of 1 mM ouabain, and taken as 100%. Furthermore, 5 μM ouabain and 0.1% of DMSO were included in each plate as a positive and a vehicle control, respectively.

[2] = target: T1, purified Na/K-ATPase; assay: 3H-ouabain binding to the purified Na/K-ATPase; details: 20 nM 3H ouabain
Experimental: FIG. 8: Effects of MB5 on ouabain binding to the purified Na/K-ATPase. The purified Na/K-ATPase (2 μg) was incubated with 20 nM ^3H ouabain in the presence of different concentrations of MB5.

[3] = target: T1, purified Na/K-ATPase; assay: Na/K-ATPase activity assay (Example II), two-phase inhibition; format: biochemical
Experimental: FIGS. 7A-7C: Dose-dependent inhibition of Na/K-ATPase by MB5: FIG. 7A: The two phase inhibition of both low and high affinity.
The purified Na/K-ATPase was prepared from pig kidney. The specific activities of Na/K-ATPase of various kidney preparations were in the range of 900-1,200 μmol/mg/h, which were greater than 95% of the total ATPase activity. The Na/K-ATPase assay was conducted in the following reaction buffer with the final volume of 500 μl: 100 mM NaCl, 20 mM KCl, 1 mM MgCl2, 1 mM EGTA, 20 mM Tris-HCl (pH 7.4) and 1 μg of purified Na/K-ATPase. After compounds were added, mixtures were incubated for 15 min at 37° C. for 15 min and reaction was initiated by adding 2 mM ATP.Mg mixture. Reactions were carried out for 15 min and then stopped by the addition of 300 μl ice-cold trichloroacetic acid. Reaction mixtures were cleared by centrifugation, and assayed for released phosphate using the BIOMOL GREEN™ Reagent according to the manufacturer's instructions.

[4] = test system: ouabain-induced ERK activation in LLC-PK1 cells; assay: Ouabain-induced activation of ERKs in LLC-PK1 cells after MB5 pretreatment; format: cell-based, pig; details: 15 min pretreatment, ouabain 1 nM and 100 nM
Experimental: FIG. 9B: Effects of MB5 on ouabain-induced activation of ERKs. LLC-PK1 cells were pretreated with different concentrations of MB5 (1 nM, 10 μM) for 15 min, exposed to 1 nM ouabain for 10 min, and assayed for active ERKs as in FIG. 9A. A representative set of images is shown.
FIG. 9C: Effects of MB5 on ouabain-induced activation of ERKs. LLC-PK1 cells were pretreated with different concentrations of MB5 (1 nM, 10 μM) for 15 min, exposed to 100 nM ouabain for 10 min, and assayed for active ERKs as in FIG. 9A. A representative set of images is shown.
FIG. 9D: Effects of MB5 on ouabain-induced activation of ERKs. LLC-PK1 cells were pretreated with different concentrations of MB5 (1 nM, 10 μM) for 15 min, exposed to 1 nM ouabain for 1 hour, and assayed for active ERKs as in FIG. 9A. A representative set of images is shown.
(§1) LLC-PK1 cells grown on coverslips were serum starved for 24 h and treated with MB5 or ouabain for different times Immunostaining of p-ERK was performed using the commercial available ERK/MAPK (Phospho-Thr202/Tyr204) Phosphorylation/Translocation Cell-Based Assay Kit according to the manufacturer's instructions. The signals were detected by a Leica confocal microscope. Leica confocal software was used for data analysis.
Ouabain stimulates protein kinase cascades via a Src-dependent pathway in LLC-PK1 cells. […]

[5] = test system: EGF or dopamine-induced ERK activation in LLC-PK1 cells; assay: EGF- or dopamine-induced activation of ERKs in LLC-PK1 cells after MB5 pretreatment; format: cell-based, pig; details: MB5 1 nM, 10 μM, 15 min pretreatment
Experimental: FIG. 9E: Effects of MB5 on stimuli-induced activation of ERKs. LLC-PK1 cells were pretreated with different concentrations of MB5 (1 nM, 10 μM) for 15 min, exposed to epidermal growth factor (EGF) or Dopamine stimuli for either 10 or 3 min, and assayed for active ERKs as in FIG. 9A. A representative set of images is shown.
as §1
Ouabain stimulates protein kinase cascades via a Src-dependent pathway in LLC-PK1 cells. To determine whether MB5 can antagonize ouabain-induced signal transduction, treated LLC-PK1 cells were pre-treated with different concentrations of MB5 for 15 min and then exposed to ouabain or other stimuli.

[6] = target: Na-ATPase (Sus scrofa (Pig), UniProt P05024); assay: Na-ATPase activity inhibition; format: biochemical
Experimental: In the experiments depicted in FIG. 1A, the dose-response curves of MB7 were compared with ouabain. […] Furthermore, 10 μM MB7 produced 58±6% inhibition of Na-ATPase as did on Na/K-ATPase.

[7] = target: Na/K-ATPase/Src complex (Sus scrofa (Pig), UniProt P05024); assay: Activation of receptor Na/K-ATPase/Src complex (pY418 Western blot); format: biochemical; details: reconstituted complex in test tube; ouabain 10 μM, MB7 1 and 10 μM
Experimental: FIG. 3: Effects of MB7 and ouabain on receptor Na/K-ATPase/Src complex. The purified Na/K-ATPase (2 μg) and purified Src were incubated in the presence of either 10 μM ouabain or 1 and 10 μM MB7 for 15 min and assayed for Src activation as described in “Experimental Procedures”. Values are mean SE of at least three independent experiments. **p<0.01 compared with control.
The activity of receptor Na/K-ATPase/Src complex was assayed. Briefly, the purified Src (4.5 U) was incubated with 2 μg of the purified Na/K-ATPase in phosphate-buffered saline (PBS) for 30 min at 37° C. Afterward, the Na/K-ATPase/Src complex was exposed to ouabain or MB7 for 10 min. Reaction was initiated by addition of 2 mM ATP/Mg^2+, continued for 5 min at 37° C. and was stopped by addition of SDS sample buffer. The activation of Src was measured by Western blot using anti-pY418 antibody. Total Src was also probed for loading control.

[8] = test system: Src in A549 cells; assay: Src activation in A549 cells (Western blot); format: cell-based, human; details: 10 min; 100 nM ouabain, MB7 up to 10 μM
Experimental: FIG. 4A: Effects of MB7 and ouabain on Src and ERKs. A549 cells were treated with ouabain or MB7 for 10 min and cell lysates (50 μg/lane) were separated by SDS-PAGE and analyzed for Src activation as in FIG. 3. The values are mean±S.E. from four separate experiments. *, p<0.05 versus control.
The pig kidney epithelia cells (LLC-PK1 cells) and human lung cancer cells (A549 cells) were obtained from ATCC and maintained in Dulbecco's modified Eagle's medium (DMEM) in the presence of 10% FBS, 100 units/ml penicillin, and 100 μg/ml streptomycin in a 5% CO2 humidified incubator. To eliminate the confounding effect of growth factors in the serum, cells were serum starved for 24 h before experiments unless otherwise indicated.
Cells were washed with PBS and solubilized in ice-cold RIPA buffer containing 1% Nonidet P-40, 1% sodium deoxycholate, 150 mM NaCl, 1 mM EDTA, 1 mM phenylmethylsulfonyl fluoride, 1 mM sodium orthovanadate, 1 mM NaF, 10 μg/ml aprotinin, 10 μg/ml leupeptin, and 50 mM Tris-HCl (pH 7.4) as previously described (13). Cell lysates were then cleared by centrifugation at 14,000 rpm, and supernatants were used for protein assay and subjected to Western blot analysis. Samples were separated on SDS-PAGE (50 μg/lane) and transferred to a cellulose membrane. […] Protein signals were detected using an ECL kit and quantified using a Bio-Rad GS-670 imaging densitometer.

[9] = test system: ERKs in LLC-PK1 cells; assay: p-ERK immunostaining in LLC-PK1 cells; format: cell-based, pig; details: for cellular ERK activity (active ERKs by immunostaining): LLC-PK1, 10 min, 100 nM ouabain, MB7 from 100 nM to 10 μM
Experimental: FIG. 4B: LLC-PK1 cells were treated with MB7 or ouabain for 10 minutes and were immunostained with the ERK/MAPK (Phospho-Thr202/Tyr204) Phosphorylation/Translocation Cell-Based Assay Kit according to the manufacturer's instructions. The images were collected as described under “Experimental Procedures.” The scale bar represents […]. Images from a representative experiment are shown. The quantitative data of p-ERK were collected from 40 different fields in three independent experiments and expressed as mean±S.E. *, p<0.05 versus control.
as §1, with “MB7” for “MB5”
as §1

[10] = inhibition of purified pig kidney Na/K-ATPase, Table II, read-out: IC50

Structure (SMILES): COc1cc(O)c2c(=O)c3c(OC)c(O)ccc3oc2c1 [2027BA1]
IC50 [1, 10]: > 100 µM

Structure (SMILES): COc1cc(O)c2c(=O)c3c(O)c(OC)ccc3oc2c1 [2027BA2]
IC50 [1, 10]: > 100 µM

Structure (SMILES): COc1ccc2oc3cc(OC)c(OC)c(OC)c3c(=O)c2c1 [C-017]
IC50 [1, 10]: > 100 µM

IC50 [1, 10]: > 100 µM
Structure (SMILES): O=c1c2ccccc2oc2cc(O)cc(O)c12 [MB1, 1,3-Dihydroxyxanthone]

Structure (SMILES): O=c1c2ccccc2oc2c(O)c(O)ccc12 [MB2, 3,4-Dihydroxyxanthone]
IC50 [1, 10]: > 100 µM

IC50 [1, 10]: 65 µM
Structure (SMILES): O=c1c2cccc(O)c2oc2cc(O)cc(O)c12 [MB3, 1,3,5-Trihydroxyxanthone]

IC50 [1, 10]: 10 µM
concentration at which significant inhibition of ouabain binding was detected [2]: 0.1 nM
maximal inhibition of ouabain binding ([2]; 10 μM MB5): 30%
inhibition at 50 µM ([3]; at about 50 μM, read-out: inhibition by low affinity binding): 100%
inhibition of the ATPase activity by high affinity inhibition ([3]; high affinity phase): about 25%
IC50 ([3]; high affinity site, sub-nM concentrations): 0.04 nM
Structure (SMILES): O=c1c2cccc(O)c2oc2c(O)c(O)ccc12 [MB5, 3,4,5-Trihydroxyxanthone]
effect on ouabain-induced activation of ERKs ([4]; MB5 at 1 nM): significantly reduce
effect on ouabain-induced activation of ERKs ([4]; MB5 at 10 μM): completely blocked
effect on ERK activation induced by EGF or dopamine [5]: failed to affect ERK activation

Structure (SMILES): O=c1c2ccc(O)c(O)c2oc2cc(O)cc(O)c12 [MB6, 1,3,5,6-Tetrahydroxyxanthone]
IC50 [1, 10]: 60 µM

effect on Na+ and ATP affinities of Na/K-ATPase ([1]; MB7 at 10 μM, substrate dependence, FIG. 2A-2B): reduced both Na^+ and ATP affinities
effect of changes in K+ concentration on compound-induced inhibition of Na/K-ATPase [1]: no effect
IC50 ([1]; dose-dependent inhibition of Na/K-ATPase, FIG. 1A, read-out: apparent IC50): 5 µM
IC50 [1, 10]: 5 µM
inhibition at 10 µM [6]: 58 ± 6%
activation of Na/K-ATPase-associated Src [7]: failed to activate Src
Structure (SMILES): O=c1c2ccc(O)c(O)c2oc2c(O)c(O)ccc12 [MB7, 3,4,5,6-Tetrahydroxyxanthone]
Src activation in A549 cells [8]: failed to do the same
cellular ERK activity (active ERKs by immunostaining) [9]: failed to affect cellular ERK activity

Structure (SMILES): COc1ccc2c(=O)c3ccc(OC)c(OC)c3oc2c1 [MB8]
IC50 [1, 10]: > 100 µM

Structure (SMILES): C[C@@H]1O[C@@H](O[C@H]2C[C@@H](O)[C@]3(CO)[C@H]4[C@H](O)C[C@]5(C)[C@@H](C6=CC(=O)OC6)CC[C@]5(O)[C@@H]4CC[C@]3(O)C2)[C@H](O)[C@H](O)[C@H]1O [ouabain]
IC50 [1]: ~5 µM
effect of changes in K+ concentration on compound-induced inhibition of Na/K-ATPase [1]: antagonized
activation of Na/K-ATPase-associated Src [7]: stimulated
Src activation in A549 cells [8]: stimulated Src
cellular ERK activity (active ERKs by immunostaining) [9]: increased cellular amount of active ERKs
ERK stimulation ([9]; LLC-PK1, ouabain 1 nM and 100 nM, time and concentration-dependent): stimulated ERKs

Structure (SMILES): O=c1c2ccccc2oc2ccccc12 [xanthone, reference compound]
inhibition of Na/K-ATPase activity ([1]; dose-response curves): failed to inhibit; also recorded: no detectable inhibition
